Reference: paper PMC10455339, “Combining the Peptide RWQWRWQWR and an Ethanolic Extract of Bidens pilosa Enhances the Activity against Sensitive and Resistant Candida albicans and C. auris Strains” (Journal of Fungi, 2023)
Where “and” joins values, the source holds several entries; their conditions need not be identical. Equal entries are not always repeated. Where two headings read alike, the source gives them in different places. Ends that are not written are not given here.

Tests used:
C. albicans = settings: cited from earlier work
Source text: Antifungal activity of other phenolic acids, such as chlorogenic acid, has been reported against Candida spp. resistant to FLC, generating a death process similar to apoptosis.

C. albicans 256-PUJ-HUSI = experiment: Antifungal activity (MIC/MFC), broth microdilution; format: cell-based, Candida albicans; settings: FLC-resistant isolate, n = 3
Description: (§1) For the determination of the MICs, the guidelines of the Clinical Laboratory Standards Institute (CLSI BMD-M27-A4) were used with some modifications. Serial dilutions were made, for peptides from 6.25 to 200 µg/mL and for extracts from 31.2 to 2000 µg/mL, with RPMI 1640 medium in a 96-well microdilution plate (100 µL), and then 100 µL of the adjusted inoculum (0.5–2.5 × 10^3 cells/mL) was added and incubated at 37 °C, and visual and spectrophotometric reading (595 nm) was performed at 48 h. Controls: growth control in RPMI or DMSO, control with a known antifungal: FLC, C. albicans SC5314 (1 µg/mL), C. albicans 256 (64 µg/mL), C. auris 435 (8 µg/mL), and C. auris 537 (128 µg/mL), sterility controls correspond to RPMI medium and SS. The MIC was defined as the minimum concentration of peptide or extract that inhibited 50% of growth compared to the control. To determine the minimal fungicidal concentration (MFC), from the concentrations where no growth was observed, including the controls, a subculture was made on SDA and incubated for 24 h at 37 °C. The MFC was defined as the minimum concentration of peptide or extract that eliminated 100% of the growth compared to the control (n = 3).

C. albicans SC5314 = experiment: microbe, parasite or virus in culture; format: cell-based, Candida albicans; settings: n = 3; for MIC: CLSI M27-A4 modified, RPMI 1640, 37 °C, 48 h, MIC = 50% growth inhibition; for MFC: subculture on SDA 24 h 37 °C, MFC = eliminates 100% of growth
Description: as §1

C. auris 435-PUJ-HUSI = experiment: Antifungal activity (MIC/MFC), broth microdilution; format: cell-based, Candida auris; settings: FLC-sensitive isolate, n = 3; for MIC: CLSI M27-A4 modified, RPMI 1640, 37 °C, 48 h, MIC = 50% growth inhibition; for MFC: subculture on SDA 24 h 37 °C, MFC = eliminates 100% of growth
Description: as §1

C. auris 537-PUJ-HUSI = experiment: Antifungal activity (MIC/MFC), broth microdilution; format: cell-based, Candida auris; settings: FLC- and AmB-resistant isolate, n = 3
Description: as §1

[1] = reported against other C. albicans strains
[2] = reported against C. albicans strains
[3] = CLSI M27-A4 modified, RPMI 1640, 37 °C, 48 h, MIC = 50% growth inhibition
[4] = subculture on SDA 24 h 37 °C, MFC = eliminates 100% of growth

FKCRRWQWRMKKLGA [bLF (or LFB) 17–30, short peptide derived from LfcinB, …]
MIC (C. albicans; [1]): 5 to 10 µM

GAPSITCVRRAF [Peptide 3, short peptide derived from LfcinB, …]
MIC (C. albicans; [1]): 635 µM

Lfcin B-18-42: short peptide derived from LfcinB (FKCRRWQWRMKKLGAPSITCVRRAF; ends and bridges not checked; cysteine pairing not given here; UniProt P24627 36-60, looked up, fragment)
MIC (C. albicans; [2]): 100 µg/mL

LfcinB: Bovine lactoferricin, AMP derived from bovine lactoferrin (FKCRRWQWRMKKLGAPSITCVRRAF; ends and bridges not checked; cysteine pairing not given here; UniProt P24627 36-60, looked up)
MIC (C. albicans; [2]): 0.8 to 400 µg/mL

RRWQWRMKK [Lfcin B-9, short peptide derived from LfcinB, …]
MIC (C. albicans; [2]): 25,000–32,000 μg/mL

RWQWHomoFQWR [[^5HomoF]-R-1-R, RWQWHomoFQWR, position 5 replaced by Homophenylalanine]
MIC (C. albicans 256-PUJ-HUSI; [3]): 200 μg/mL and 134 μM | MFC (C. albicans 256-PUJ-HUSI; [4]): > 200 μg/mL and > 134 μM | MIC (C. albicans SC5314): 200 μg/mL and 134 μM | MFC (C. albicans SC5314): > 200 μg/mL and > 134 μM | MIC (C. auris 435-PUJ-HUSI): > 200 μg/mL and > 134 μM | MFC (C. auris 435-PUJ-HUSI): > 200 μg/mL and > 134 μM | MIC (C. auris 537-PUJ-HUSI; [3]): > 200 μg/mL and > 134 μM | MFC (C. auris 537-PUJ-HUSI; [4]): > 200 μg/mL and > 134 μM

RWQWNalQWR [[^5Nal]-R-1-R, RWQWNalQWR, position 5 replaced by Naphthylalanine]
MIC (C. albicans SC5314): > 200 μg/mL and > 131 μM | MFC (C. albicans SC5314): > 200 μg/mL and > 131 μM | MIC (C. auris 435-PUJ-HUSI): > 200 μg/mL and > 131 μM | MFC (C. auris 435-PUJ-HUSI): > 200 μg/mL and > 131 μM

RWQWRM [Peptide 5, short peptide derived from LfcinB, RWQWRM]
MIC (C. albicans; [1]): 500 µM
